From ChEMBL document CHEMBL1201862, “PubChem BioAssay data set” (2004) come the findings set out here.

Calls of active or inactive are those of the source.

For one assay, the target named is Large T antigen (Simian virus 40, UniProt P03070). The class given is functional, Betapolyomavirus macacae.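 Further: Confirmatory-stage PubChem screen for compounds that inhibit SV40 T antigen.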
The target in assay [1] is Dual specificity tyrosine-phosphorylation-regulated kinase 1A (Rattus norvegicus, UniProt Q63470). The class given is biochemical, Homo sapiens.
Assay [2] concerns the target T1, Histone-lysine N-methyltransferase NSD2 (Homo sapiens, UniProt O96028).
T1 sequence (O96028 whole entry): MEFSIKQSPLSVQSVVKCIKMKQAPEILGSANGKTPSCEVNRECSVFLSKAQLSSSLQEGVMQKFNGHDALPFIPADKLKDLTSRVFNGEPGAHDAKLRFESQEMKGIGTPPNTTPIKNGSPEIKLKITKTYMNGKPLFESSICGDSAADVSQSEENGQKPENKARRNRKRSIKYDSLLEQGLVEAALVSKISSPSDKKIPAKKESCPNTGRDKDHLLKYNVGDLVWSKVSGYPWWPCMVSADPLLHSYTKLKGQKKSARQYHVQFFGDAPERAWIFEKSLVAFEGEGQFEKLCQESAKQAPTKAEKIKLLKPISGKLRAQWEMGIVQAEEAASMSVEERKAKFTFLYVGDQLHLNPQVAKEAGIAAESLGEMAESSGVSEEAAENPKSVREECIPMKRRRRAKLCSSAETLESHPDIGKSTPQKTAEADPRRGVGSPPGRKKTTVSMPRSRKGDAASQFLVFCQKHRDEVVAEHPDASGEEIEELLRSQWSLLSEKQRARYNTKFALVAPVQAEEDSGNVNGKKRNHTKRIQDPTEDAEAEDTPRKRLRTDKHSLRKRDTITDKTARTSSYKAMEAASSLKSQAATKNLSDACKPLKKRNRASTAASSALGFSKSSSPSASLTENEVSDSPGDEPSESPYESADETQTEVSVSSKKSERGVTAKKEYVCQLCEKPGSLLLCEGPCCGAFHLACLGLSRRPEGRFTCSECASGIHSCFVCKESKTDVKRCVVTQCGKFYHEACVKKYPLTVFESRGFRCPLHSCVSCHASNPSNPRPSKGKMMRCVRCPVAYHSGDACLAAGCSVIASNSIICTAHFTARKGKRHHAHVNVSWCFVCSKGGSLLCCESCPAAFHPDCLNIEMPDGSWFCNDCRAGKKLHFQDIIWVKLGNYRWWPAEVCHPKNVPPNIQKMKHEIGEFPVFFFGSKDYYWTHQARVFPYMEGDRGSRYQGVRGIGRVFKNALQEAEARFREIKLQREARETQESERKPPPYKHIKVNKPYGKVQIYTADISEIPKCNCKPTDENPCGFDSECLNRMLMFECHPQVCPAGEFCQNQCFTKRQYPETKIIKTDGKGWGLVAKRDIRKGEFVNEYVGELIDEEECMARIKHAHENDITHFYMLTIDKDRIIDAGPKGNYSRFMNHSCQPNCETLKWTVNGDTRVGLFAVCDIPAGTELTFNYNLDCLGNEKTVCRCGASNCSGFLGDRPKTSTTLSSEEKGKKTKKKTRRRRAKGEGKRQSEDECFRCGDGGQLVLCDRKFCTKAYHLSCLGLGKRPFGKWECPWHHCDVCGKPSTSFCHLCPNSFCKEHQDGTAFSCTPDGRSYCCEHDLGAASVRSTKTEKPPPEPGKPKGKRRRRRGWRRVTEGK
The class given is biochemical.

The target of another assay is T2, Caspase-6 (Homo sapiens, UniProt P55212).
T2 sequence (P55212 whole entry): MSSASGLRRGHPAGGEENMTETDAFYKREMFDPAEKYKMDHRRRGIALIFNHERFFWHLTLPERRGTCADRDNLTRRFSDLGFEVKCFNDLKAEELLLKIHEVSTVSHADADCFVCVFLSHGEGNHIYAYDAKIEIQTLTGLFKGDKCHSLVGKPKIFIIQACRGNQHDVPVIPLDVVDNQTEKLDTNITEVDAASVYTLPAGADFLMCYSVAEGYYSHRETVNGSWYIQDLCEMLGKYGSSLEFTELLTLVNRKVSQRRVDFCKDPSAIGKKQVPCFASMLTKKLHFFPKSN
Kind of assay: human caspase-6 inhibitors, dose response, biochemical, VEID-R110 fluorescence, cherry-pick (AID 720632).

Assay [3] concerns the target Voltage-dependent T-type calcium channel subunit alpha-1H (Homo sapiens, UniProt O95180). The class given is functional.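 Further: channel activity triggered by adding a high calcium stimulation buffer.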
Assay [4] in a line: inhibitors of firefly luciferase expression or activity, dose response, H4 neuroglioma cells, luminescence (AID 1990). The class given is functional, cell-based.
Assay [5] in a line: Luminescence Cell-Based Dose Response HTS to Identify Inhibitors of 5'UTR Stem-Loop Driven Prion Protein mRNA Translation in H4 Neuroglioblastoma Cells. [Related pubchem assays: 1827 (Project Summary), 1813 (Primary HTS)]. The class given is functional.
The next assay addresses Cytochrome P450 2D6 (Homo sapiens, UniProt P10635). The assay is described as follows: qHTS Assay for Inhibitors and Substrates of Cytochrome P450 2D6. [Related pubchem assays: 410 ]. The class given is ADME. The following applies: read-out: Potency.
The nature of assay [6]: inhibitors of SNCA 5'UTR-driven reporter translation, confirmation, H4 neuroglioma cells, luminescence (AID 1988). The class given is functional, cell-based.
The nature of assay [7]: HEp-2 cell cytotoxicity, dose response, cytotoxicity control for RSV inhibitor project, HTS (AID 2410). The class given is functional. Particulars: human respiratory syncytial virus.
Assay [8] in a line: HEK293T cytotoxicity, dose response, cytotoxicity control for miR-122 modulator project, cell-based, inhibitor set, cherry-pick, set 2 (AID 720697). The class given is functional.
For assay [9], the target named is Luciferin 4-monooxygenase (Photinus pyralis, UniProt P08659). The assay is described as follows: firefly luciferase enzyme inhibitors, dose response, biochemical, luminescence (AID 1891).
Assay [10] is described as follows: Luminescence Cell-Based Dose Confirmation HTS to Identify Inhibitors of Platelet Dense Granule Release. [Related pubchem assays: 1663 (Primary HTS), 1678 (Summary of Project)]. The class given is functional.
A further assay has as its target T3, Aminopeptidase N (Plasmodium falciparum FcB1/Columbia, UniProt O96935).
T3 sequence (O96935 whole entry): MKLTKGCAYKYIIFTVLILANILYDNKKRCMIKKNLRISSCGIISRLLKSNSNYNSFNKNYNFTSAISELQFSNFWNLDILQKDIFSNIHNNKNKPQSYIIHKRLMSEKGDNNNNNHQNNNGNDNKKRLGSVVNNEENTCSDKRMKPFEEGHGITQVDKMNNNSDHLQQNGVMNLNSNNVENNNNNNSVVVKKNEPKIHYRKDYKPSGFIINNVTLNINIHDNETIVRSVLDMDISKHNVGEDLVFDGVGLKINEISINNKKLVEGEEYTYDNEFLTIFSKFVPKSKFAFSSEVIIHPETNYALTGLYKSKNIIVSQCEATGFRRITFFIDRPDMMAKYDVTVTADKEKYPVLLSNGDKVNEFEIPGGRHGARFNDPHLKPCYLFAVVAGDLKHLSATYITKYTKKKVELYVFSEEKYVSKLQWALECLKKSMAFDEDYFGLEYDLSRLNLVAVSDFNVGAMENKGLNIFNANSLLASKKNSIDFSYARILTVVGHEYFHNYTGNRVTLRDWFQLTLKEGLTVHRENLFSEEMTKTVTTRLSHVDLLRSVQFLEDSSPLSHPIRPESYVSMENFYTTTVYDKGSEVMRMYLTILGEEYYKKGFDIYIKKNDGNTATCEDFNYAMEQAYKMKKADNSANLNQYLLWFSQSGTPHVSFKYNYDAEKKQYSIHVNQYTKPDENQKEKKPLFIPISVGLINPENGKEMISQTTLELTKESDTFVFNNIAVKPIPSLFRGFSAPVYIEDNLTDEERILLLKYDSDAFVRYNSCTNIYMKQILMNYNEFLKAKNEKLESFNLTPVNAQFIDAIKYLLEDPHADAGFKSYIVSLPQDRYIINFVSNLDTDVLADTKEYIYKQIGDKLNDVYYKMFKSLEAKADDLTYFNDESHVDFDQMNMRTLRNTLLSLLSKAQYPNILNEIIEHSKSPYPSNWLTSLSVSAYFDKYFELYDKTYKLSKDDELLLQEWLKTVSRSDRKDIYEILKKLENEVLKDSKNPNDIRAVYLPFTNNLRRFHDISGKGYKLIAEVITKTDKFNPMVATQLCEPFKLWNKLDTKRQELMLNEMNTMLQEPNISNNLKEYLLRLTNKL
The assay is described as follows: P. falciparum M1AAP inhibitors, biochemical, fluorogenic H-Leu-NHMec substrate, 1536-well (AID 1445). The arrangement: species or system Plasmodium falciparum 3D7, 3D7.

The target in the next assay is T4, Leucine aminopeptidase (Plasmodium falciparum 3D7, UniProt Q8IL11).
T4 sequence (Q8IL11 whole entry): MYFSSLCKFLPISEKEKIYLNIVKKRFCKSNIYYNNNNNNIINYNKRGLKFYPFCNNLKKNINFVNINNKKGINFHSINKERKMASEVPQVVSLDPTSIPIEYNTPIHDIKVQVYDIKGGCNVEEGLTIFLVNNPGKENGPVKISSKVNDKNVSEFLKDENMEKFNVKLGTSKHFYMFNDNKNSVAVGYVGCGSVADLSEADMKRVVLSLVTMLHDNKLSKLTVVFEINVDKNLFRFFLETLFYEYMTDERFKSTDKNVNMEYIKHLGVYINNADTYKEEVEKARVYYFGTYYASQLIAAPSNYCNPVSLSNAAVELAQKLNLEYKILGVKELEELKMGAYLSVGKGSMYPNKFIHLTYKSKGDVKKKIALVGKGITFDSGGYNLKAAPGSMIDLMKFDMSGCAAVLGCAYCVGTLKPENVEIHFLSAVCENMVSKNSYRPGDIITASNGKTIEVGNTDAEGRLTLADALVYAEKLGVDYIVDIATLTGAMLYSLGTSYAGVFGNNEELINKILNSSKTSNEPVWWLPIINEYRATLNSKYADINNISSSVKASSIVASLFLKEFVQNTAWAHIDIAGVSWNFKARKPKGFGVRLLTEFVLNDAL
Kind of assay: P. falciparum M17LAP inhibitors, primary screen, biochemical, fluorogenic H-Leu-NHMec substrate, 1536-well (AID 1619). The class given is functional.

For assay [11], the target named is FAD-linked sulfhydryl oxidase ALR (Homo sapiens, UniProt P55789). Kind of assay: inhibitors of human ALR sulfhydryl oxidase, dose response, biochemical, H2O2 detection, luminescence, cherry-pick (AID 493248).
A further assay has as its target Cytochrome P450 3A4 (Homo sapiens, UniProt P08684). The following applies: Potency.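 Further: confirmatory qHTS run detecting inhibitors and substrates of CYP3A4.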

Sequence of Voltage-dependent T-type calcium channel subunit alpha-1H (O95180 whole entry): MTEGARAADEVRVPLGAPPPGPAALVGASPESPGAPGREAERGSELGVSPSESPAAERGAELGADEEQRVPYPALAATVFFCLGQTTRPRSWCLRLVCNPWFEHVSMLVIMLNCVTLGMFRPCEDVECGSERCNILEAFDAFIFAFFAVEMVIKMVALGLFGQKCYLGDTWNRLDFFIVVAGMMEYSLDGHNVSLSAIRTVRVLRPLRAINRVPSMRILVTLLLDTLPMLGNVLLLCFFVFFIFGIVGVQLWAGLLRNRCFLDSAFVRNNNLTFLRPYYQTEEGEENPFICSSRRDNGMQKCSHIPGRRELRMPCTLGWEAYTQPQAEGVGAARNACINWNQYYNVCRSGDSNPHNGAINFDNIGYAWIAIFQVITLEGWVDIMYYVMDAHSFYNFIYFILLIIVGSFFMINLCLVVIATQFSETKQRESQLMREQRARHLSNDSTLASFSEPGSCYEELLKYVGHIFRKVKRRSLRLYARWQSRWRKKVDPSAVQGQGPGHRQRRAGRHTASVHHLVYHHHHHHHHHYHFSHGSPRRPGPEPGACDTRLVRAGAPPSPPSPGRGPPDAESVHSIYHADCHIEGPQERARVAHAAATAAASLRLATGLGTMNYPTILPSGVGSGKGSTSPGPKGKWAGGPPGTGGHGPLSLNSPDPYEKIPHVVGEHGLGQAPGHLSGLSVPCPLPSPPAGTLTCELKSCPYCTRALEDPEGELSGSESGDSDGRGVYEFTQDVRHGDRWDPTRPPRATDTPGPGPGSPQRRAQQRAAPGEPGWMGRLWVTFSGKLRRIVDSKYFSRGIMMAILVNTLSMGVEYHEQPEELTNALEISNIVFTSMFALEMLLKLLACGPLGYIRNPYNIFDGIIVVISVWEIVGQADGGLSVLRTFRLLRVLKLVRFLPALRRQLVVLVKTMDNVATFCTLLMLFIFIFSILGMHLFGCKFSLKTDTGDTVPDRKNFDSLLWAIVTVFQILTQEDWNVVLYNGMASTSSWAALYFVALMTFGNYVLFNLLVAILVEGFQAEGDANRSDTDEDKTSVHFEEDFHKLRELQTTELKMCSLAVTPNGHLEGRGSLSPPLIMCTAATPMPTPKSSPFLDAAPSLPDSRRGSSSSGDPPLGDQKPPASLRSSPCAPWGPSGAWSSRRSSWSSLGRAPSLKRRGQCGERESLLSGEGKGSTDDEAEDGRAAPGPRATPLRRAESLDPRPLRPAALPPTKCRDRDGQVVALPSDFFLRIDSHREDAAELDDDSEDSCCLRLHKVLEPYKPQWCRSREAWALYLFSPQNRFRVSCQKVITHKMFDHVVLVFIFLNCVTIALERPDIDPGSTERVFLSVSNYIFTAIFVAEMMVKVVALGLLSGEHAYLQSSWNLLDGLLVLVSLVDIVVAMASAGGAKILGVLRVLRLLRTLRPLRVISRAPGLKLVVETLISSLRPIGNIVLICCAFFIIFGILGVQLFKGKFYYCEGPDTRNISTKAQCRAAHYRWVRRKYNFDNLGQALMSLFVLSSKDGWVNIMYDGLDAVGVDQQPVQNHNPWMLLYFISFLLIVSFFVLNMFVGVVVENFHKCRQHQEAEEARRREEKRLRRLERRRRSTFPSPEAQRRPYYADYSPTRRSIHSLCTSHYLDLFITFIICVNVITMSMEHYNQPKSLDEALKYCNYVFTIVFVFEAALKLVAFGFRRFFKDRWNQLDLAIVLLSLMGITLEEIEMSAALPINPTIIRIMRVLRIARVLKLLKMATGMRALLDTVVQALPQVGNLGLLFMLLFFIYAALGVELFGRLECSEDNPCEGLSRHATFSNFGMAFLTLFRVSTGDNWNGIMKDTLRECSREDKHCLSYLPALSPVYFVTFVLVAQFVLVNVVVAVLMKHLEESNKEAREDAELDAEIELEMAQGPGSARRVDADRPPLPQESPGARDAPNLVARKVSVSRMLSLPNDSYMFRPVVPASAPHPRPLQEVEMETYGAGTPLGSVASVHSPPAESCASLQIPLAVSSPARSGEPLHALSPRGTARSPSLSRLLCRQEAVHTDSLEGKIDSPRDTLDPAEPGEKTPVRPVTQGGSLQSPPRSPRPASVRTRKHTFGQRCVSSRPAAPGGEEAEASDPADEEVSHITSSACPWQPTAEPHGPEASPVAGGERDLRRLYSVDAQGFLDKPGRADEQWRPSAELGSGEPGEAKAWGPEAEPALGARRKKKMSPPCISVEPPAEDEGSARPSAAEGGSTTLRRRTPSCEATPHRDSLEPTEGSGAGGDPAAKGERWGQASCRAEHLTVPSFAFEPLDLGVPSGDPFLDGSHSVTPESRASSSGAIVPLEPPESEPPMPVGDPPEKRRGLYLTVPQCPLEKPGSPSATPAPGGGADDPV
Sequence of Cytochrome P450 2D6 (P10635 whole entry): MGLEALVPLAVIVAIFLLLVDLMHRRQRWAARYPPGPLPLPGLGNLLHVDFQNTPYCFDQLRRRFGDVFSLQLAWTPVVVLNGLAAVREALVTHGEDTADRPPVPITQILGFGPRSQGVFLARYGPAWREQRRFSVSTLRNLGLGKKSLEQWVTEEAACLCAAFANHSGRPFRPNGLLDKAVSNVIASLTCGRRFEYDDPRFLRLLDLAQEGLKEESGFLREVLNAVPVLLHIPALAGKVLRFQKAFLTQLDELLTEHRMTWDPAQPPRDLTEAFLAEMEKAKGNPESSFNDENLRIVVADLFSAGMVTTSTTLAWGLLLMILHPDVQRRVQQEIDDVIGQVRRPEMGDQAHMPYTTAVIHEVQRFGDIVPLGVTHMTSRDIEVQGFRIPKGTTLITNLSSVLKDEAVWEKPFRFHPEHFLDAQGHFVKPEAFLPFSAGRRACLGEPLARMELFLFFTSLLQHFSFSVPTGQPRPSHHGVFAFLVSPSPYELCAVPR
Sequence of Large T antigen (P03070 whole entry): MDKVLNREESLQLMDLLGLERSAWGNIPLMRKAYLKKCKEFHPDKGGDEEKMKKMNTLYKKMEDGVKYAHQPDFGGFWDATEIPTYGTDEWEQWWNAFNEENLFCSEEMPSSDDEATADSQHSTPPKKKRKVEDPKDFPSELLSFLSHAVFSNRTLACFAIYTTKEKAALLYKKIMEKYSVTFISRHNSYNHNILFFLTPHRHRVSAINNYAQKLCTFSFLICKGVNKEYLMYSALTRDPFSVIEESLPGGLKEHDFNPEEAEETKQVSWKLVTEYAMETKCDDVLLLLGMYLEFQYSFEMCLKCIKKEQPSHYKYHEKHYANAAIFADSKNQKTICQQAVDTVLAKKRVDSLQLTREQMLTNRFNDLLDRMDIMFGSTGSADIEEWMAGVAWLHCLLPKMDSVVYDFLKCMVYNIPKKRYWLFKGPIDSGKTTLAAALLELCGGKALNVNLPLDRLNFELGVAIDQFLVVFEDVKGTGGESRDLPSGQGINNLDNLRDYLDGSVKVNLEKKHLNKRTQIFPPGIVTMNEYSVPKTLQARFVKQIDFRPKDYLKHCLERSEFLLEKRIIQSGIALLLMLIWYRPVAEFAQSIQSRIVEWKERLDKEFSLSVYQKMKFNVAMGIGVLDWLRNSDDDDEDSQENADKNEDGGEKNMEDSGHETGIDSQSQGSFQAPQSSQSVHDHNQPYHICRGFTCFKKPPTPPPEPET
Sequence of Luciferin 4-monooxygenase (P08659 whole entry): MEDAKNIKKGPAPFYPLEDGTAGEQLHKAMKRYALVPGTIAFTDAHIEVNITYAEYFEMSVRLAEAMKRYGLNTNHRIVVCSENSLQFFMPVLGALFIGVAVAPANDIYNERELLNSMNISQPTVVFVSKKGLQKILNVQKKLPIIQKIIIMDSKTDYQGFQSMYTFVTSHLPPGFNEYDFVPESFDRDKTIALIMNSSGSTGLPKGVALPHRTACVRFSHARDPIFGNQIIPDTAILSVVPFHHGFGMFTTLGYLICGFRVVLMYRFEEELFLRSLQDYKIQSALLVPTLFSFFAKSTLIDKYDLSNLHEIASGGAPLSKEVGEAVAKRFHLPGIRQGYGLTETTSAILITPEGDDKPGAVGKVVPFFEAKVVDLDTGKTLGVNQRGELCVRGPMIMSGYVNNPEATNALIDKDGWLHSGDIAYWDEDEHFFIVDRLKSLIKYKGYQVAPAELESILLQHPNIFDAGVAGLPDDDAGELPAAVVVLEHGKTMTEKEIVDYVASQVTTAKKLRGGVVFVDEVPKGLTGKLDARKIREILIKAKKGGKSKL
Sequence of FAD-linked sulfhydryl oxidase ALR (P55789 whole entry): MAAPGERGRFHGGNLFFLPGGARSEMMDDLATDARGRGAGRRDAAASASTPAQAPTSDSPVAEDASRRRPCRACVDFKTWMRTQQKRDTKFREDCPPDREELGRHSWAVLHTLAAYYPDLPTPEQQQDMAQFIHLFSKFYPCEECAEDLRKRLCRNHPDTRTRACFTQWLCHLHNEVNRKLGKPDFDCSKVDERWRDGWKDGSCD
Sequence of Cytochrome P450 3A4 (P08684 whole entry): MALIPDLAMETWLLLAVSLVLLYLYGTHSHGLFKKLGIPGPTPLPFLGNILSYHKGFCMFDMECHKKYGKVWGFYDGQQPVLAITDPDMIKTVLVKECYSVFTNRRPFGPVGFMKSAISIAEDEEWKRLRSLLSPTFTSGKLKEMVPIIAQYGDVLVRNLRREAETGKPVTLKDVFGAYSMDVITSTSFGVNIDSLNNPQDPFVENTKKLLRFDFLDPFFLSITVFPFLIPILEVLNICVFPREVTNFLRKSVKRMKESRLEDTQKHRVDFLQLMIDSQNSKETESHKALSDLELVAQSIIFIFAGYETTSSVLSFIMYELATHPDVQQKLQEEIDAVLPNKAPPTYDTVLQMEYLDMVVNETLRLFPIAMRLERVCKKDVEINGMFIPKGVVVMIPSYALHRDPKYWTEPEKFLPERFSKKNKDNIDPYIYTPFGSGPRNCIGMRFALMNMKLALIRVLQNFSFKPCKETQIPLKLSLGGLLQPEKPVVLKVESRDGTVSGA

Consider `N#C/C(=C/c1ccc(O)c(O)c1)c1nc2ccccc2[nH]1`, for which the IC50 (usually the concentration needed to halve the response being measured) at Large T antigen was 12.3 µM (active). In addition, the AC50 in assay [1] is 2.06 µM (active); in assay [2], 2.05 µM (active).
For the compound `O=C(O)CCN1CC2([N+](=O)[O-])C=CC(=O)C([N+](=O)[O-])(C1)C2CC(=O)c1ccccc1` (stereo unspecified), the AC50 on Caspase-6 is 15.7 µM (active).
For the compound `O=C(Nc1ccccc1Cl)c1cc(S(=O)(=O)N2CCCCC2)ccc1N1CCOCC1`, the EC50 (as a rule, the midpoint of the concentration-response curve) in assay [3] is 5.14 µM (active).
On to `Cc1c(O)c(=O)ccn1Cc1ccccc1`, for which the EC50 in [4] is 11.3 µM (active); in assay [5], 3.71 µM (active); in [6], > 120 µM (not active). Also, the AC50 on Cytochrome P450 2D6 is 3.16 µM (inconclusive).
Turning to `CCn1cc(C(=O)NCc2cccc(F)c2)c(=O)c2cc(F)c(N3CCN(C(=O)c4ccco4)CC3)cc21`, the CC50 (as a rule, the concentration giving 50% cytotoxicity) in assay [7] was > 50 µM (active). In addition, in “cells”, the IC50 was 48.9 µM (active).
Consider `COC(=O)c1cc(NS(=O)(=O)c2ccc3c(c2)CCC(=O)N3)cc(C(=O)OC)c1`, for which, in [8], the AC50 is 3.3 µM (active).
As for `COc1cc(OC)c(NC(=O)CS(=O)(=O)Cc2nc(-c3ccc(C)cc3)oc2C)cc1Cl`, in [3], the EC50 is 5.56 µM (active).
Take `O=c1cc(-c2ccc(O)c(O)c2)oc2c(C3O[C@H](CO)[C@@H](O)[C@H](O)[C@H]3O)c(O)cc(O)c12` (stereo partly specified): the IC50 was 3.15 µM (active) on Large T antigen and 18 µM (active) in “cells”.
Regarding `CCn1c(C(=O)N2CCC(C(=O)NCCCSC3CCCCC3)CC2)cc2sccc21`, the EC50 in assay [9] is 25 µM (active); in assay [10] it was > 112 µM (not active); in [3], 3.51 µM (active).
On to `COc1ccc(OC)c(CNC(=O)c2coc(=O)c3ccccc23)c1`, for which the CC50 in assay [7] was 37.8 µM (active). Moreover, the results for the EC50 in assay [9] and in assay [10] were > 112 µM (not active) and 19.5 µM (active), respectively. Besides, in “cells”, the IC50 is 29.3 µM (active).
On to `CCCCCSc1cc(OC)c(CCNC)cc1OC`, for which, in assay [2], the AC50 was 17.5 µM (active).
For `Cc1cc(C)cc(-n2nnc(C(=O)NCc3ccc4c(c3)OCO4)c2N)c1`, the EC50 in assay [3] was 2.39 µM (active).
On to `CCOC(=O)CC1C(=O)NCCN1c1nc2ccc(C)cn2c(=O)c1/C=C1\SC(=S)N(C(C)CC)C1=O` (stereo unspecified), for which the CC50 in assay [7] is 13.3 µM (active). For the same compound, the IC50 at Aminopeptidase N is 49.8 µM (active).
Turning to `CCOc1cc(/C=C(/C#N)c2nc3ccccc3[nH]2)ccc1OCc1ccc(C(=O)O)o1`, the IC50 on Leucine aminopeptidase is 9.14 µM (active); on Aminopeptidase N, 60.8 µM (active).
As for `OCC1(CCOc2ccccc2)CCN(Cc2cccn2-c2ncccn2)CC1`, the CC50 in [7] was > 50 µM (active). For the same compound, the IC50 in “cells” is 17.9 µM (active).
Take `Cc1ccc2[nH]c(-c3cccc(N)c3)cc2c1`: in assay [7], the CC50 was > 50 µM (active). For the same compound, the AC50 in assay [11] was 13.2 µM (active). Besides, the IC50 in “cells” is 41.4 µM (active).
For `O=c1c(O)c(-c2cccc(O)c2)oc2ccccc12`, on Cytochrome P450 2D6, the AC50 is 25.1 µM (inconclusive).
Turning to `Cc1nc2ccccn2c(=O)c1CCN1CCC(C(=O)c2ccc(F)cc2)CC1` [PIRENPERONE], the AC50 on Cytochrome P450 2D6 is 7.94 µM (inconclusive); on Cytochrome P450 3A4, 20 µM (inconclusive).
